Assays:
Assay type in all cases: cell-based, human
A2058 melanoma cells = experiment: MTS cell viability, A2058 melanoma cells; settings: Homo sapiens, 48 h, read-out: IC50 for 50% inhibition of viability
Method: (§1) MTS assays were performed for cell viability. Human cancer cells were seeded in 96-well plates (2500 cells/well for solid tumors, 5000 cells/well for blood tumors), incubated overnight at 37 C in 5% CO2, and exposed to 5IN-1NH1 or 5IN-1NH1s in a dose-dependent manner for 48 h. See FIGS. 1A-1B, 2A-2B, 3, 4A-4B, and 6A-6B. Dimethyl sulfoxide (DMSO) was used as the vehicle control. Viable cell numbers were determined by tetrazolium conversion to its formazan dye and absorbance was measured at 490 nm using an automated ELISA plate reader. Each experiment was performed in quadruplicate. IC50 values were determined using CalcuSyn software (BIOSOFT®, Cambridge GB).

[1] = test system: DU145 prostate cancer cells; experiment: MTS cell viability, DU145 prostate cancer cells; settings: Homo sapiens, DU-145, 48 h, read-out: IC50 for 50% inhibition of viability
Method: as §1

A549 lung cancer cells = experiment: MTS cell viability, A549 lung cancer cells; settings: Homo sapiens, 48 h, read-out: IC50 for 50% inhibition of viability
Method: as §1

[2] = test system: MDA-MB-231 breast cancer cells; experiment: MTS cell viability, MDA-MB-231 breast cancer cells; settings: Homo sapiens, 48 h, read-out: IC50 for 50% inhibition of viability
Method: as §1

[3] = test system: SKOV3 ovarian cancer cells; experiment: MTS cell viability, SKOV3 ovarian cancer cells; settings: Homo sapiens, SK-OV-3, 48 h, read-out: IC50 for 50% inhibition of viability
Method: as §1

MV4-11 AML cells = experiment: MTS cell viability, MV4-11 AML cells (FLT3-ITD); settings: Homo sapiens, 48 h, read-out: IC50 for 50% inhibition of viability
Method: as §1
(§2) Compound (1289) inhibits viabilities of MV4-11 and MOLM13 AML cells that harbor an internal tandem duplication (ITD) mutation. MTS assays were performed for cell viability. Human MV4-11 and MOLM13 AML cells (5000/well) were seeded in 96-well plates, incubated overnight at 37° C. in 5% CO2, and exposed to compound (1289) in a dose-dependent manner for 48 h. Dimethyl sulfoxide (DMSO) was used as the vehicle control. Viable cell numbers were determined by tetrazolium conversion to its formazan dye and absorbance was measured at 490 nm using an automated ELISA plate reader. Each experiment was performed in quadruplicate. IC50 values were determined using CalcuSyn software.

MOLM13 AML cells = experiment: MTS cell viability, MOLM13 AML cells (FLT3-ITD); settings: Homo sapiens, MOLM-13, 48 h, read-out: IC50 for 50% inhibition of viability
Method: as §1, §2

KCL22 CML cells = experiment: MTS cell viability, KCL22 CML cells; settings: Homo sapiens, KCL-22, 48 h, read-out: IC50 for 50% inhibition of viability
Method: as §1

[4] = test system: T315I ABL1 mutant KCL22 CML cells; experiment: MTS cell viability, T315I ABL1 mutant KCL22 CML cells
Method: as §1
Human DU145 prostate cancer, A2058 melanoma, SKOV3 ovarian cancer and T315I ABL1 mutant KCL22 CML cells were seeded in 96-well plates (2500 cells/well for solid tumors, 5000 cells/well for blood tumors), incubated overnight at 37° C. in 5% CO2, and exposed to 5IN-6NC1, 5IN-1NH1, 5IN-6NNC6, or 5IN-6NNC7 in a dose-dependent manner for 48 h. Dimethyl sulfoxide (DMSO) was used as the vehicle control. Viable cell numbers were determined by tetrazolium conversion to its formazan dye and absorbance was measured at 490 nm using an automated ELISA plate reader. Each experiment was performed in quadruplicate. IC50 values were determined using CalcuSyn software.

IC50 (A2058 melanoma cells): 77.2 nM | IC50 [1]: 35.7 nM | IC50 (A549 lung cancer cells): 66.5 nM | IC50 [2]: 49.5 nM | IC50 [3]: 174 nM | IC50 (MV4-11 AML cells): 7.8 nM | IC50 (MOLM13 AML cells): 11.3 nM
SMILES: CNCCO/N=C1/C(=C2/C(=O)Nc3ccc(Br)cc32)Nc2ccccc21 [5IN-1NH1]
IC50 (KCL22 CML cells): 57.4 nM | IC50 ([4]; Homo sapiens, KCL-22, T315I ABL1 mutant KCL22 CML cells, MTS, 48 h, read-out: IC50 for 50% inhibition of viability): 52.3 nM | potency against T315I KCL22 CML cells relative to compound (1289) ([4]; more potent than compound (1289)): around 10 fold

From US11964941B2, “5-Bromo-indirubins” (City of Hope, priority 2014, dated 2024)
